System: adult female Wistar rats
Assay: Gastric ulcerogenic activity
Type: in vivo, rat
Conditions: fasted rats

Cc1ccc(C(C)C)c(O)c1C=NN=c1scc(-c2ccccc2)n1-c1ccccc1 [Compound 6a, 2-((2-Hydroxy-3-isopropyl-6-methylbenzylidene)hydrazono)-3,4-diphenyl-2,3-dihydrothiazole]
Gastric ulcerogenic potential, gross examination: no ulceration

O=C(O)Cc1ccccc1Nc1c(Cl)cccc1Cl [Diclofenac sodium, diclofenac sodium, reference compound]
Gastric ulcerogenic potential, gross examination: no ulceration

Cc1ccc(-c2cc(C(F)(F)F)nn2-c2ccc(S(N)(=O)=O)cc2)cc1 [Celecoxib, celecoxib, reference compound]
Gastric ulcerogenic potential, gross examination: no ulceration

Cc1ccc(C(C)C)c(O)c1C=NN=c1scc(-c2ccc(Br)cc2)n1-c1ccccc1Cl [Compound 6f, 2-((2-Hydroxy-3-isopropyl-6-methylbenzylidene)hydrazono)-3-(2-chlorophenyl)-4-(4-bromophenyl)-2,3-dihydrothiazole]
Gastric ulcerogenic potential, gross examination: no ulceration

Cc1ccc(C(C)C)c(O)c1C=NN=c1scc(-c2ccccc2)n1-c1ccccc1Cl [Compound 6b, 2-((2-Hydroxy-3-isopropyl-6-methylbenzylidene)hydrazono)-3-(2-chlorophenyl)-4-phenyl-2,3-dihydrothiazole]
Gastric ulcerogenic potential, gross examination: no ulceration

Source: paper PMC10833116 (Journal of Enzyme Inhibition and Medicinal Chemistry, 2024)
